Assay results: BigSolDB 2.1

Cc1ccc(Nc2nccc(N(C)c3ccc4c(C)n(C)nc4c3)n2)cc1S(N)(=O)=O
solubility (mole fraction)
Conditions	288.15 K	293.15 K	298.15 K	303.15 K	308.15 K	313.15 K	318.15 K	323.15 K	328.15 K
in ethanol	7.97e-06	1.01e-05	1.27e-05	1.61e-05	1.96e-05	2.36e-05	2.85e-05	3.41e-05	4.04e-05
in ethyl acetate	6.17e-06	8.06e-06	1.04e-05	1.31e-05	1.63e-05	2e-05	2.48e-05	3.06e-05	3.7e-05
in isopropanol	9.43e-06	1.19e-05	1.49e-05	1.86e-05	2.25e-05	2.71e-05	3.25e-05	3.9e-05	4.69e-05
